Measured values from ChEMBL document CHEMBL4828722, “The synthesis and bioactivity of pyrrolo[2,3-d]pyrimidine derivatives as tyrosine kinase inhibitors for NSCLC cells with EGFR mutations” (Eur J Med Chem, 2021).
The source made the active and inactive calls. The rule behind the calls is not given here.

Tests used:
NCI-H460 = assay: Cytotoxicity against human NCI-H460 cells harboring wild type EGFR assessed as reduction in cell viability measured after 48 hrs by CCK8 assay; format: functional, cell-based; settings: NCI-H460, 48 h
NCI-H1975 [1] = assay: Induction of apoptosis in human NCI-H1975 cells harboring EGFR L858R/T790M mutant assessed as total apoptotic cells at 5 uM measured after 18 hrs by Annexin V-FITC/PI staining based flow cytometry analysis (Rvb= 9.2%); format: functional
NCI-H1975 [2] = assay: Induction of cell cycle arrest in human NCI-H1975 cells harboring EGFR L858R/T790M mutant assessed as accumulation of cells in S phase at 5 uM measured after 18 hrs by PI/RNaseA staining based flow cytometry analysis (Rvb= 39.78%); format: functional
BEAS-2B = assay: Cytotoxicity against human BEAS-2B cells assessed as reduction in cell viability measured after 48 hrs by CCK8 assay; format: cell-based
HBE = assay: Inhibition of AKT/S6 phosphorylation […] in human HBE cells at 5 uM incubated for 2 hrs by immunoblotting analysis; format: cell-based
A549 [3] = assay: Induction of cell cycle arrest in human A549 cells harboring wild type EGFR assessed as accumulation of cells in G0/G1 phase at 1 uM measured after 18 hrs by PI/RNaseA staining based flow cytometry analysis (Rvb= 58.27%); format: functional
A549 [4] = assay: Induction of cell cycle arrest in human A549 cells harboring wild type EGFR assessed as accumulation of cells in S phase at 0.5 uM measured after 18 hrs by PI/RNaseA staining based flow cytometry analysis (Rvb= 33.26%); format: functional
A549 [5] = assay: Induction of cell cycle arrest in human A549 cells harboring wild type EGFR assessed as accumulation of cells in G2/M phase at 5 uM measured after 18 hrs by PI/RNaseA staining based flow cytometry analysis (Rvb= 8.47%); format: functional
HCC827 [6] = assay: Induction of apoptosis in human HCC827 cells harboring EGFR del E746-A750 mutant assessed as total apoptotic cells at 5 uM measured after 18 hrs by Annexin V-FITC/PI staining based flow cytometry analysis (Rvb= 10.8%); format: functional
HCC827 [7] = assay: Induction of apoptosis in human HCC827 cells harboring EGFR del E746-A750 mutant assessed as late apoptotic cells at 5 uM measured after 18 hrs by Annexin V-FITC/PI staining based flow cytometry analysis (Rvb= 1.2%); format: functional
A549 [8] = assay: Cytotoxicity against human A549 cells harboring wild type EGFR assessed as reduction in cell viability measured after 48 hrs by CCK8 assay; format: functional, cell-based; settings: A549, 48 h
NCI-H1975 [9] = assay: Induction of cell cycle arrest in human NCI-H1975 cells harboring EGFR L858R/T790M mutant assessed as accumulation of cells in S phase at 1 uM measured after 18 hrs by PI/RNaseA staining based flow cytometry analysis (Rvb= 39.78%); format: functional
NCI-H1975 [10] = assay: Induction of apoptosis in human NCI-H1975 cells harboring EGFR L858R/T790M mutant assessed as late apoptotic cells at 0.5 uM measured after 18 hrs by Annexin V-FITC/PI staining based flow cytometry analysis (Rvb= 0.1%); format: functional
HCC827 [11] = assay: Induction of cell cycle arrest in human HCC827 cells harboring EGFR del E746-A750 mutant assessed as accumulation of cells in S phase at 5 uM measured after 18 hrs by PI/RNaseA staining based flow cytometry analysis (Rvb= 33.62%); format: functional
HCC827 [12] = assay: Cytotoxicity against human HCC827 cells harboring EGFR del E746-A750 mutant assessed as reduction in cell viability measured after 48 hrs by CCK8 assay; format: functional, cell-based; settings: HCC827, 48 h
NCI-H1975 [13] = assay: Induction of apoptosis in human NCI-H1975 cells harboring EGFR L858R/T790M mutant assessed as total apoptotic cells at 0.5 uM measured after 18 hrs by Annexin V-FITC/PI staining based flow cytometry analysis (Rvb= 9.2%); format: functional
A549 [14] = assay: Induction of cell cycle arrest in human A549 cells harboring wild type EGFR assessed as accumulation of cells in S phase at 5 uM measured after 18 hrs by PI/RNaseA staining based flow cytometry analysis (Rvb= 33.26%); format: functional
A549 [15] = assay: Induction of cell cycle arrest in human A549 cells harboring wild type EGFR assessed as accumulation of cells in G2/M phase at 1 uM measured after 18 hrs by PI/RNaseA staining based flow cytometry analysis (Rvb= 8.47%); format: functional
NCI-H1975 [16] = assay: Induction of cell cycle arrest in human NCI-H1975 cells harboring EGFR L858R/T790M mutant assessed as accumulation of cells in S phase at 0.5 uM measured after 18 hrs by PI/RNaseA staining based flow cytometry analysis (Rvb= 39.78%); format: functional
HCC827 [17] = assay: Induction of cell cycle arrest in human HCC827 cells harboring EGFR del E746-A750 mutant assessed as accumulation of cells in G0/G1 phase at 5 uM measured after 18 hrs by PI/RNaseA staining based flow cytometry analysis (Rvb= 49.60%); format: functional
NCI-H1975 [18] = assay: Induction of apoptosis in human NCI-H1975 cells harboring EGFR L858R/T790M mutant assessed as early apoptotic cells at 5 uM measured after 18 hrs by Annexin V-FITC/PI staining based flow cytometry analysis (Rvb= […]); format: functional
HCC827 [19] = assay: Induction of apoptosis in human HCC827 cells harboring EGFR del E746-A750 mutant assessed as live cells at 0.5 uM measured after 18 hrs by Annexin V-FITC/PI staining based flow cytometry analysis (Rvb= 87.5%); format: functional
NCI-H1975 [20] = assay: Induction of apoptosis in human NCI-H1975 cells harboring EGFR L858R/T790M mutant assessed as early apoptotic cells at 0.5 uM measured after 18 hrs by Annexin V-FITC/PI staining based flow cytometry analysis (Rvb= […]); format: functional
[21] = molecular target: Mitogen-activated protein kinase; ERK1/ERK2 (Homo sapiens) (UniProt P27361+P28482); assay: Inhibition of ERK1/2 phosphorylation at Thr202/Tyr204 residue in human HBE cells at 5 uM incubated for 2 hrs by immunoblotting analysis; format: cell-based
Chain of Mitogen-activated protein kinase; ERK1/ERK2 (Homo sapiens) (P27361 whole entry, looked up): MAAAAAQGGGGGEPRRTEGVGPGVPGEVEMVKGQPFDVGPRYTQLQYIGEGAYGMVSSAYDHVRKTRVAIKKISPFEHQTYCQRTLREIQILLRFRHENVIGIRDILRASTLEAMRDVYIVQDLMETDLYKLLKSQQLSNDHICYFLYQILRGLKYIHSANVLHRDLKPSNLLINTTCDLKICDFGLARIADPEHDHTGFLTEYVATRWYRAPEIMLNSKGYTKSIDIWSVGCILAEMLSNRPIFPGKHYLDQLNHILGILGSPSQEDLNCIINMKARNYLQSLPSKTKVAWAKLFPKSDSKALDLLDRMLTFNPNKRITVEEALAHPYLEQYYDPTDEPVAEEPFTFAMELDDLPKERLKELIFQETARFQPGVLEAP
Chain of Mitogen-activated protein kinase; ERK1/ERK2 (Homo sapiens) (P28482 whole entry, looked up): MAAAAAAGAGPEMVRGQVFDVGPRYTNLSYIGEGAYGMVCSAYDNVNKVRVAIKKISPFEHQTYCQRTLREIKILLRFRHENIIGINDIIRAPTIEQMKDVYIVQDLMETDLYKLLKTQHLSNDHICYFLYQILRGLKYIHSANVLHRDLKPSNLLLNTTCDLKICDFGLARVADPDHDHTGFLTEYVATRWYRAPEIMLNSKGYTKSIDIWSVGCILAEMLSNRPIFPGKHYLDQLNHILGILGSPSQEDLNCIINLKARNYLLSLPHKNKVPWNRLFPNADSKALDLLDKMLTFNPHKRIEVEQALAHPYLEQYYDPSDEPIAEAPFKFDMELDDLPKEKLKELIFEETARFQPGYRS

HCC827 [22] = assay: Induction of cell cycle arrest in human HCC827 cells harboring EGFR del E746-A750 mutant assessed as accumulation of cells in S phase at 0.5 uM measured after 18 hrs by PI/RNaseA staining based flow cytometry analysis (Rvb= 33.62%); format: functional
HCC827 [23] = assay: Induction of cell cycle arrest in human HCC827 cells harboring EGFR del E746-A750 mutant assessed as accumulation of cells in S phase at 1 uM measured after 18 hrs by PI/RNaseA staining based flow cytometry analysis (Rvb= 33.62%); format: functional
HCC827 [24] = assay: Induction of cell cycle arrest in human HCC827 cells harboring EGFR del E746-A750 mutant assessed as accumulation of cells in G0/G1 phase at 1 uM measured after 18 hrs by PI/RNaseA staining based flow cytometry analysis (Rvb= 49.60%); format: functional
NCI-H1975 [25] = assay: Induction of apoptosis in human NCI-H1975 cells harboring EGFR L858R/T790M mutant assessed as dead cells at 0.5 uM measured after 18 hrs by Annexin V-FITC/PI staining based flow cytometry analysis (Rvb= […]); format: functional

SMILES | IC50 (NCI-H460) [µM] | Activity (NCI-H1975 [1]) [%] | Activity (NCI-H1975 [2]) [%] | IC50 (BEAS-2B) [µM] | inhibition (HBE) | Activity (A549 [3]) [%] | Activity (A549 [4]) [%] | Activity (A549 [5]) [%] | Activity (HCC827 [6]) [%] | Activity (HCC827 [7]) [%] | IC50 (A549 [8]) [µM] | Activity (NCI-H1975 [9]) [%] | Activity (NCI-H1975 [10]) [%] | Activity (HCC827 [11]) [%] | IC50 (HCC827 [12]) [µM] | Activity (NCI-H1975 [13]) [%] | Activity (A549 [14]) [%] | Activity (A549 [15]) [%] | Activity (NCI-H1975 [16]) [%] | Activity (HCC827 [17]) [%] | also measured
C=CC(=O)Nc1cccc(Oc2nc(Nc3ccc(N4CCN(C)CC4)c(N)c3)nc3[nH]ccc23)c1 | 26.7 | 16.1 | 10.15 | 7.8 | inactive | 64.23 | 29.06 | 8.09 | 28.7 | 16.6 | 6.07 | 19.24 | 0.3 | 13.93 | 0.046 | 16.4 | 6.86 | 9.7 | 19.32 | 78.12 | Activity (NCI-H1975 [18]): 15.9%; Activity (HCC827 [19]): 69.1%; Activity (NCI-H1975 [20]): 16.1%; inhibition [21]: Active; Activity (HCC827 [22]): 15.39%; Activity (HCC827 [23]): 20.39%; Activity (HCC827 [24]): 72.43%; Activity (NCI-H1975 [25]): 2.5%
C=CC(=O)Nc1cccc(Oc2nc(Nc3ccc(N4CCN(C)CC4)c(F)c3)nc3[nH]ccc23)c1 [ABIVERTINIB] | 6.02 | 11.7 | 9.8 | 3.68 | inactive | 62.04 | 30.03 | 7.55 | 35.4 | 21.6 | 1.92 | 18.87 | 1.2 | 10.83 | 0.1 | 9.5 | 14.85 | 8.97 | 21.24 | 80.34 | Activity (NCI-H1975 [18]): 11.3%; Activity (HCC827 [19]): 67.9%; Activity (NCI-H1975 [20]): 8.3%; inhibition [21]: Active; Activity (HCC827 [22]): 15.36%; Activity (HCC827 [23]): 15.37%; Activity (HCC827 [24]): 73%; Activity (NCI-H1975 [25]): 1.5%
C=CC(=O)Nc1cccc(Oc2nc(Nc3ccc(N4CCN(C)CC4)c([N+](=O)[O-])c3)nc3[nH]ccc23)c1 | 8.02 | 13.5 | 10.03 | 3.68 | inactive | 70.46 | 27.39 | 9.25 | 30.3 | 19.4 | 2.9 | 13.11 | 0.3 | 4.36 | 0.11 | 12.7 | 8.2 | 8.33 | 20.79 | 81.52 | Activity (NCI-H1975 [18]): 13.2%; Activity (HCC827 [19]): 68.2%; Activity (NCI-H1975 [20]): 12.4%; inhibition [21]: Active; Activity (HCC827 [22]): 14.31%; Activity (HCC827 [23]): 10.81%; Activity (HCC827 [24]): 77.64%; Activity (NCI-H1975 [25]): 2%
